# Test results from US12180155B2, “Crystalline forms of a cannabinoid receptor type 1 (CB1) modulator and methods of use and preparation thereof” (Anebulo Pharmaceuticals, Inc., priority 2021, dated 2024).
# Columns and labels:
# Format in all cases: physicochemical
# [1] = Competitive slurries of Crystalline Form I and Crystalline Form II; conditions: for conversion of equimolar Form I / Form II slurry to this form: XRPD of solids
# Description: The relationship between Crystalline Form I and Crystalline Form II of Compound 1 was investigated via competitive slurries and solubility determination.
# Equimolar amounts of the Crystalline Form I and Crystalline Form II were suspended in saturated solution of compound 1 and aged in different conditions. Slurry samples were taken at intervals, solids were filtered, dried and analyzed by XRPD. Two temperatures, 20° C. and 40° C., and two different solvent systems, heptane and a mixture of ethanol and water, were investigated.
# [2] = Stability at solid state (XRPD re-analysis after storage)
# [3] = Thermogravimetric analysis (TGA); conditions: up to 150° C.
# Source text: (§1) TGA: Polymorphs according to the present disclosure may also give rise to thermal behavior different from that of the amorphous material or another polymorphic form. Thermal behavior may be measured in the laboratory by thermogravimetric analysis (TGA) which may be used to distinguish some polymorphic forms from others. In one aspect, the polymorphs as described herein may be characterized by thermogravimetric analysis.
# The TGA trace of Crystalline Form I of (R)—N-(tert-butyl)-3-((4-chlorophenyl)(2-(trifluoromethyl)phenyl)methoxy)azetidine-1-carboxamide (compound 1) is reported in FIG. 3.
# The TGA trace of Crystalline Form II of (R)—N-(tert-butyl)-3-((4-chlorophenyl)(2-(trifluoromethyl)phenyl)methoxy)azetidine-1-carboxamide (compound 1) is reported in FIG. 7.
# [4] = Temperature dependent solubility in heptane (Crystal16, clear points); conditions: for temperature at which the two solubility lines intersect / relative solubility: heptane; for temperature at which the two solubility lines intersect: Form I vs Form II
# Description: Temperature dependent solubility experiment was performed on Crystalline Form I and Crystalline Form II of Compound 1, and data was generated by Crystal16 equipment using heptane as solvent. Slurries with accurate amounts of solid in heptane were prepared, equilibrated at 20° C. for 5 minutes then heated to 70° C. at a rate of 5° C./min, and the turbidity of the suspensions were measured. Clear points of the solutions were determined and solubility vs. temperature curves (Arrhenius plots: ln[conc.] vs. 1/T [° K]) were obtained, as shown in FIG. 9.
# [5] = Dynamic vapor sorption (DVS); conditions: for weight gain from dryness to 90% RH: second adsorption cycle
# Source text: as §1, with “DVS:” for “TGA:”, “vapors sorption” for “thermal”, “The vapor sorption” for “Thermal”, “dynamic vapor sorption (DVS)” for “thermogravimetric analysis (TGA)”, “dynamic vapor sorption.” for “thermogravimetric analysis.”
# The DVS trace of Crystalline Form I of (R)—N-(tert-butyl)-3-((4-chlorophenyl)(2-(trifluoromethyl)phenyl)methoxy)azetidine-1-carboxamide (compound 1) is reported in FIG. 4.
# The DVS trace of Crystalline Form I of (R)—N-(tert-butyl)-3-((4-chlorophenyl)(2-(trifluoromethyl)phenyl)methoxy)azetidine-1-carboxamide (compound 1) is reported in FIG. 8.
Compound,"conversion of equimolar Form I / Form II slurry to this form ([1]; 20° C., heptane and ethanol/water)",relative polymorph stability ([1]; room temperature (20-21° C.)),XRPD pattern after storage with respect to initial XRPD pattern ([2]; 8 weeks of storage at laboratory conditions),weight loss [3],temperature at which the two solubility lines intersect [4],relative solubility ([4]; temperature less than 39° C.),relative stability ([4]; temperatures less than 39° C.),hygroscopic behavior ([5]; dryness to 90% RH),weight gain from dryness to 90% RH [5],conversion of equimolar Form I / Form II slurry to this form ([1]; 40° C.),XRPD pattern after storage with respect to initial XRPD pattern ([2]; 5 weeks of storage at laboratory conditions),relative solubility ([4]; temperature greater than 40° C.),relative stability ([4]; temperatures greater than 40° C.)
"CC(C)(C)NC(=O)N1CC(O[C@H](c2ccc(Cl)cc2)c2ccccc2C(F)(F)F)C1 [Crystalline Form II, (R)—N-(tert-butyl)-3-((4-chlorophenyl)(2-(trifluoromethyl)phenyl)methoxy)azetidine-1-carboxamide]",complete conversion,most stable polymorph form,did not show significant differences,< 0.1%,about 39 °C,less than that of Crystalline Form I,more stable,non-hygroscopic behavior,< 0.1%,–,–,–,–
"CC(C)(C)NC(=O)N1CC(O[C@H](c2ccc(Cl)cc2)c2ccccc2C(F)(F)F)C1 [Crystalline Form I, (R)—N-(tert-butyl)-3-((4-chlorophenyl)(2-(trifluoromethyl)phenyl)methoxy)azetidine-1-carboxamide]",–,–,–,< 0.1%,about 39 °C,–,–,–,0.4%,slow but complete conversion,did not show significant differences,less than that of Crystalline Form II,more stable
